Laboratory results taken from patent publication US5494790A, “α-3 sialyltransferase” (Kyowa Hakko Kogyo Co., Ltd., priority 1991, dated 1996).

Tests used:
[1] = system: α2→3 Sialyltransferase encoded in the plasmid pAMoPRSAL-35F (fused protein with the IgG-binding region of Staphylococcus aureus protein A); assay: Sialyltransferase activity on IgG Sepharose, HPLC of pyridylaminated sugar chain substrates (Table 1); format: biochemical, human; conditions: for α2→3 Sialyltransferase activity, pAMoPRSAL-35F, pmol: 0.1 mM substrate, 5 μl IgG Sepharose, 5 mM CMP-sialic acid, 37° C., 2 hours; for acceptance as substrate by the α2→3 sialyltransferase (in words): IgG Sepharose from Namalwa cells having pAMoPRSAL-35F; for α2→3 Sialyltransferase activity, pAMoPRSAL-35F, Relative activity: activity to the substrate LNnT taken as 100
[2] = target: T1, α2→3 sialyltransferase encoded in the plasmid pAMoPRSAW17-31F (fused protein with the IgG-binding region of Staphylococcus aureus protein A) (Homo sapiens, UniProt Q11206); assay: Sialyltransferase activity on IgG Sepharose, HPLC of pyridylaminated sugar chain substrates (Table 2); format: biochemical; conditions: for α2→3 Sialyltransferase activity, pAMoPRSAW17-31F, pmol: 0.1 mM substrate, 5 μl IgG Sepharose, 5 mM CMP-sialic acid, 37° C., 2 hours; for acceptance as substrate by the α2→3 sialyltransferase (in words): IgG Sepharose from Namalwa cells having pAMoPRSAW17-31F; for α2→3 Sialyltransferase activity, pAMoPRSAW17-31F, Relative activity: activity to the substrate LNnT taken as 100
T1 construct: from 31st Phe to 329th Phe; made in house
T1 sequence (Q11206 35-333): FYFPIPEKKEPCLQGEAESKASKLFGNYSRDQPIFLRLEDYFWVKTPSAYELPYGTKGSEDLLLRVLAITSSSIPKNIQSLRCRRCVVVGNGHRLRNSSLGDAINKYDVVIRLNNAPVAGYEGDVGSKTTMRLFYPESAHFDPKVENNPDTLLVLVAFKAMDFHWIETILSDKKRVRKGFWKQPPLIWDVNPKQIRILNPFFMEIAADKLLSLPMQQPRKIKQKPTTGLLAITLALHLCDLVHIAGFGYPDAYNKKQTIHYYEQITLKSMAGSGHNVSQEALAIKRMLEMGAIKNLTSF

[3] = target: T2, known α2→3 sialyltransferase (Rattus norvegicus, UniProt Q02734); conditions: activity to the substrate LNT taken as 100; cited from earlier work
T2 sequence (Q02734 1-374): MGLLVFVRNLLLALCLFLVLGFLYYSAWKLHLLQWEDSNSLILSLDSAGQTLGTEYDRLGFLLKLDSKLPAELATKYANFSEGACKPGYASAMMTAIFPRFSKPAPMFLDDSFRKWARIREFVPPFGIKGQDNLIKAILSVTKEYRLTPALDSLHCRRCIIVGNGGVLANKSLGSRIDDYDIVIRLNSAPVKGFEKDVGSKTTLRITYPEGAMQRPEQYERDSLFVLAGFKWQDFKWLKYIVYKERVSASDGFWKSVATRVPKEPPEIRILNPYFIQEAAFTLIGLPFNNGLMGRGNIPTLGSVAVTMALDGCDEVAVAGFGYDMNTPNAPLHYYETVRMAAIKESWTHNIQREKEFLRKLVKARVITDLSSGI

| Compound | α2→3 Sialyltransferase activity, pAMoPRSAL-35F, pmol [1] [pmol] | acceptance as substrate by the α2→3 sialyltransferase (in words) [1] | α2→3 Sialyltransferase activity, pAMoPRSAL-35F, Relative activity [1] | α2→3 Sialyltransferase activity, pAMoPRSAW17-31F, pmol [2] [pmol] | acceptance as substrate by the α2→3 sialyltransferase (in words) [2] | α2→3 Sialyltransferase activity, pAMoPRSAW17-31F, Relative activity [2] | Known α2→3 ST Relative activity (Table 1) [3] | Known α2→3 ST Relative activity (Table 2) [3] |
| --- | --- | --- | --- | --- | --- | --- | --- | --- |
| CC(=O)N[C@H]1[C@H](O[C@H]2[C@@H](O)[C@@H](CO)O[C@@H](O[C@H]3[C@H](O)[C@@H](O)C(O)O[C@@H]3CO)[C@@H]2O)O[C@H](CO)[C@@H](O)[C@@H]1O[C@@H]1O[C@H](CO)[C@H](O)[C@H](O)[C@H]1O (some centres unmarked) [LNT, Galβ1-3GlcNAcβ1-3Galβ1-4Glc] | 23.8 | can take not only LNnT but also LNT as the substrate | 46 | 47.5 | can take not only LNnT but also LNT as the substrate | 42 | 100 | 100 |
| CC(=O)N[C@H]1[C@H](O[C@H]2[C@@H](O)[C@@H](CO)O[C@@H](O[C@H]3[C@H](O)[C@@H](O)C(O)O[C@@H]3CO)[C@@H]2O)O[C@H](CO)[C@@H](O[C@@H]2O[C@H](CO)[C@H](O)[C@H](O)[C@H]2O)[C@@H]1O (some centres unmarked) [LNnT, Galβ1-4GlcNAcβ1-3Galβ1-4Glc] | 51.3 | can take not only LNnT but also LNT as the substrate | 100 | 113.8 | can take not only LNnT but also LNT as the substrate | 100 | 6 | 6 |
| CC(=O)N[C@H]1[C@H](O[C@H]2[C@@H](O)[C@@H](CO)O[C@@H](O[C@H]3[C@H](O)[C@@H](O)C(O)O[C@@H]3CO)[C@@H]2O)O[C@H](CO)[C@@H](O[C@@H]2O[C@H](CO)[C@H](O)[C@H](O)[C@H]2O)[C@@H]1O[C@@H]1O[C@@H](C)[C@@H](O)[C@@H](O)[C@@H]1O (some centres unmarked) [lacto-N-fucopentaose III] | 8.1 | can take LNFP-III as the substrate | 16 | 9.4 | can take LNFP-III as the substrate | 8 |  |  |
| CC(=O)N[C@H]1[C@H](O[C@H]2[C@@H](O)[C@@H](CO)O[C@@H](O[C@H]3[C@H](O[C@@H]4O[C@@H](C)[C@@H](O)[C@@H](O)[C@@H]4O)[C@@H](O)C(O)O[C@@H]3CO)[C@@H]2O)O[C@H](CO)[C@@H](O)[C@@H]1O[C@@H]1O[C@H](CO)[C@H](O)[C@H](O)[C@H]1O (some centres unmarked) [lacto-N-fucopentaose V] | 28.8 |  | 56 | 36.3 |  | 32 |  |  |
